Test results from ChEMBL document CHEMBL1140792, “Isothiazolidinone inhibitors of PTP1B containing imidazoles and imidazolines” (Bioorg Med Chem Lett, 2008).

What was measured:
[1] = target: T1, Tyrosine-protein phosphatase non-receptor type 1 (Homo sapiens, UniProt P18031); assay: Inhibition of PTP1B by pNPP assay
T1 sequence (P18031 whole entry): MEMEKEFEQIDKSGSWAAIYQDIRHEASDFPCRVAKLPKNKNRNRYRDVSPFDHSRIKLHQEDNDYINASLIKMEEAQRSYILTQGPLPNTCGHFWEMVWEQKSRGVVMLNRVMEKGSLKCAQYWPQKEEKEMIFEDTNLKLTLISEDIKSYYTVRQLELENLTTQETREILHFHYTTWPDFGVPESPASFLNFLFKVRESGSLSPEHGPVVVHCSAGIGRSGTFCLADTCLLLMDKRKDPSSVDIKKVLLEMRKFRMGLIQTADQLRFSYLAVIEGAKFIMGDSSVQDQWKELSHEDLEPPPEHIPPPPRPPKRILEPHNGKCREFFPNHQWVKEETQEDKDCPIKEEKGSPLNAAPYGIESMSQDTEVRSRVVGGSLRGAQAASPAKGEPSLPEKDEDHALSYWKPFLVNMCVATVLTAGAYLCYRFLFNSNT

[2] = target: T2, Tyrosine-protein phosphatase non-receptor type 2 (Homo sapiens, UniProt P17706); assay: Inhibition of TCPTP by pNPP assay
T2 sequence (P17706 whole entry): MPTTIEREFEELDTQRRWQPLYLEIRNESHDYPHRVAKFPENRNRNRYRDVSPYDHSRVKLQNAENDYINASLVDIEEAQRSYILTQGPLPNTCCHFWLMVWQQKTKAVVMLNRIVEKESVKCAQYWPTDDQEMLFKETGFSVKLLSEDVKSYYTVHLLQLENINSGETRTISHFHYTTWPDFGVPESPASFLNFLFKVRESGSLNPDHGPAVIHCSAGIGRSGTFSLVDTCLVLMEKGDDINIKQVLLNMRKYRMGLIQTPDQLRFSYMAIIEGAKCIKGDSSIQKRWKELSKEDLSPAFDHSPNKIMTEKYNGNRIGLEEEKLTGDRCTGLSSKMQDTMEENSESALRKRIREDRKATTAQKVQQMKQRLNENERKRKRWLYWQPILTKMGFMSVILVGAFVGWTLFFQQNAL

[3] = Selectivity for PTP1B over TCPTP

Structure (SMILES)	IC50 [1]	IC50 [2]	Ratio IC50 [3]
O=C1CC(c2ccc(CC(NS(=O)(=O)c3cccc(F)c3)C3=NC[C@@H](Cc4ccccc4)N3)cc2)S(=O)(=O)N1 (some centres not stated)	210 nM	140 nM	
Cc1cc(CC(NS(=O)(=O)c2cccc(F)c2)C2=NC[C@@H](CCOc3cccc(S(C)(=O)=O)c3)N2)ccc1C1CC(=O)NS1(=O)=O (some centres not stated)	23 nM	25 nM	
O=C1CC(c2ccc(CC(NS(=O)(=O)c3cccc(F)c3)c3ncc(CCCc4ccccc4)[nH]3)cc2)S(=O)(=O)N1 (configuration not stated)		24 nM	
O=C1CC(c2ccc(CC(NS(=O)(=O)c3cccc(F)c3)C3=NC[C@@H](CCc4ccccc4)N3)cc2)S(=O)(=O)N1 (some centres not stated)	130 nM	68 nM	
O=C1CC(c2ccc(CC(NS(=O)(=O)c3cccc(C(F)(F)F)c3)C3=NC[C@H](c4ccccc4)N3)cc2)S(=O)(=O)N1 (some centres not stated)	2900 nM	2070 nM	
Cc1cc(CC(NS(=O)(=O)c2cccc(F)c2)C2=NC[C@@H](CCCOc3cccc(S(C)(=O)=O)c3)N2)ccc1C1CC(=O)NS1(=O)=O (some centres not stated)	160 nM	84 nM	
O=C1CC(c2ccc(CC(NS(=O)(=O)c3cccc(C(F)(F)F)c3)C3=NC[C@@H](c4ccccc4)N3)cc2)S(=O)(=O)N1 (some centres not stated)	660 nM	430 nM	
Cc1cc(CC(NS(=O)(=O)c2cccc(F)c2)C2=NC[C@@H](COc3cccc(S(C)(=O)=O)c3)N2)ccc1C1CC(=O)NS1(=O)=O (some centres not stated)	800 nM	470 nM	
O=C1CC(c2ccc(CC(NS(=O)(=O)c3cccc(C(F)(F)F)c3)C3=NCCN3)cc2)S(=O)(=O)N1 (configuration not stated)	700 nM	500 nM	
C[C@@H]1CN=C(C(Cc2ccc(C3CC(=O)NS3(=O)=O)cc2)NS(=O)(=O)c2cccc(C(F)(F)F)c2)N1 (some centres not stated)	540 nM	420 nM	
O=C1CC(c2ccc(CC(NS(=O)(=O)c3cccc(F)c3)c3ncc(Cc4ccccc4)[nH]3)cc2)S(=O)(=O)N1 (configuration not stated)	250 nM	270 nM	
O=C1CC(c2ccc(CC(NS(=O)(=O)c3cccc(C(F)(F)F)c3)c3ncc[nH]3)cc2)S(=O)(=O)N1 (configuration not stated)	240 nM	270 nM	
O=C1CC(c2ccc(CC(NS(=O)(=O)c3cccc(F)c3)c3nc(-c4ccccc4)c[nH]3)cc2)S(=O)(=O)N1 (configuration not stated)	160 nM	90 nM	
O=C1CC(c2ccc(CC(NS(=O)(=O)c3cccc(C(F)(F)F)c3)C3=NC[C@@H](Cc4ccccc4)N3)cc2)S(=O)(=O)N1 (some centres not stated)	150 nM	120 nM	
NC(=O)C(Cc1ccc(C2CC(=O)NS2(=O)=O)cc1)NS(=O)(=O)c1cccc(C(F)(F)F)c1 (configuration not stated)	5030 nM	5000 nM	
Cc1cc(CC(NS(=O)(=O)c2cccc(F)c2)c2ncc(CCCCOc3cccc(O)c3C(=O)O)[nH]2)ccc1C1CC(=O)NS1(=O)=O (configuration not stated)	32 nM	46 nM	
Cc1cc(CC(NS(=O)(=O)c2cccc(F)c2)C2=NC[C@@H](CCCCOc3cccc(O)c3C(=O)O)N2)ccc1C1CC(=O)NS1(=O)=O (some centres not stated)	22 nM	46 nM	2

Structure (SMILES)	IC50 [1]	IC50 [2]	Ratio IC50 [3]
COC(=O)c1c(O)cccc1OCCCCc1cnc(C(Cc2ccc(C3CC(=O)NS3(=O)=O)c(C)c2)NS(=O)(=O)c2cccc(F)c2)[nH]1 (configuration not stated)	160 nM	170 nM	
Cc1cc(CC(NS(=O)(=O)c2cccc(F)c2)c2ncc(CCCOc3cccc(O)c3C(=O)O)[nH]2)ccc1C1CC(=O)NS1(=O)=O (configuration not stated)	120 nM	170 nM	
O=C1CC(c2ccc(CC(NS(=O)(=O)c3cccc(C(F)(F)F)c3)c3ncc(CCCCc4ccccc4)[nH]3)cc2)S(=O)(=O)N1 (configuration not stated)	200 nM	160 nM	
O=C1CC(c2ccc(CC(NS(=O)(=O)c3cccc(C(F)(F)F)c3)c3nc4ccccc4[nH]3)cc2)S(=O)(=O)N1 (configuration not stated)		43 nM	
CC1(C)CN=C(C(Cc2ccc(C3CC(=O)NS3(=O)=O)cc2)NS(=O)(=O)c2cccc(C(F)(F)F)c2)N1 (configuration not stated)	930 nM	700 nM	
O=C1CC(c2ccc(CC(NS(=O)(=O)c3cccc(C(F)(F)F)c3)c3ncc(Cc4ccccc4)[nH]3)cc2)S(=O)(=O)N1 (configuration not stated)		230 nM	
COC(=O)c1c(O)cccc1OCCCc1cnc(C(Cc2ccc(C3CC(=O)NS3(=O)=O)c(C)c2)NS(=O)(=O)c2cccc(F)c2)[nH]1 (configuration not stated)	350 nM	170 nM	
O=C1CC(c2ccc(CC(NS(=O)(=O)c3cccc(F)c3)c3ncc(CCCCc4ccccc4)[nH]3)cc2)S(=O)(=O)N1 (configuration not stated)	260 nM	110 nM	
O=C1CC(c2ccc(CC(NS(=O)(=O)c3cccc(C(F)(F)F)c3)C3=NC[C@H](Cc4ccccc4)N3)cc2)S(=O)(=O)N1 (some centres not stated)	1300 nM	1100 nM	
O=C1CC(c2ccc(CC(NS(=O)(=O)c3cccc(F)c3)C3=NC[C@@H](Cc4ccccc4F)N3)cc2)S(=O)(=O)N1 (some centres not stated)		38 nM	
O=C1CC(c2ccc(CC(NS(=O)(=O)c3cccc(C(F)(F)F)c3)c3ncc(CCCc4ccccc4)[nH]3)cc2)S(=O)(=O)N1 (configuration not stated)	52 nM	51 nM	
O=C1CC(c2ccc(CC(NS(=O)(=O)c3cccc(C(F)(F)F)c3)c3ncc(-c4ccccc4)[nH]3)cc2)S(=O)(=O)N1 (configuration not stated)		61 nM	
COC(=O)c1c(O)cccc1OCCCC[C@@H]1CN=C(C(Cc2ccc(C3CC(=O)NS3(=O)=O)c(C)c2)NS(=O)(=O)c2cccc(F)c2)N1 (some centres not stated)	110 nM	65 nM	
O=C1CC(c2ccc(CC(NS(=O)(=O)c3cccc(C(F)(F)F)c3)c3ncc(CCc4ccccc4)[nH]3)cc2)S(=O)(=O)N1 (configuration not stated)	170 nM	170 nM	
O=C1CC(c2ccc(CC(NS(=O)(=O)c3cccc(F)c3)c3ncc(CCc4ccccc4)[nH]3)cc2)S(=O)(=O)N1 (configuration not stated)	180 nM	100 nM	
C[C@H]1CN=C(C(Cc2ccc(C3CC(=O)NS3(=O)=O)cc2)NS(=O)(=O)c2cccc(C(F)(F)F)c2)N1 (some centres not stated)	810 nM	670 nM	
